From US8044023B2, “Hepatitis C virus inhibitors” (Bristol-Myers Squibb Company, priority 2008, dated 2011) come the findings set out here.

Experiment [1] addresses NS3/4A BMS Strain (UniProt P27958). As to the kind of experiment: HCV NS3/4A protease complex enzyme assay. The format is biochemical, Hepatitis C virus. As to the method:
(§1) HCV NS3/4A protease complex enzyme assays and cell-based HCV replicon assays can be utilized in the present disclosure, and can be prepared, conducted and validated as described in the art (see, for Example, WO 2008/064061).
(§2) Compound 1 was tested as described above and found to have an IC50 (NS3/4A BMS Strain) of 4 nM. The EC50 is 5 nM.

Experiment [2] deals with HCV replicon. In words: cell-based HCV replicon assay. Conditions: Hepatitis C virus. As to the method:
as §1, §2

pEC50, pIC50: −log10 of the molar value.

Sequence of NS3/4A BMS Strain (P27958 1027-1657): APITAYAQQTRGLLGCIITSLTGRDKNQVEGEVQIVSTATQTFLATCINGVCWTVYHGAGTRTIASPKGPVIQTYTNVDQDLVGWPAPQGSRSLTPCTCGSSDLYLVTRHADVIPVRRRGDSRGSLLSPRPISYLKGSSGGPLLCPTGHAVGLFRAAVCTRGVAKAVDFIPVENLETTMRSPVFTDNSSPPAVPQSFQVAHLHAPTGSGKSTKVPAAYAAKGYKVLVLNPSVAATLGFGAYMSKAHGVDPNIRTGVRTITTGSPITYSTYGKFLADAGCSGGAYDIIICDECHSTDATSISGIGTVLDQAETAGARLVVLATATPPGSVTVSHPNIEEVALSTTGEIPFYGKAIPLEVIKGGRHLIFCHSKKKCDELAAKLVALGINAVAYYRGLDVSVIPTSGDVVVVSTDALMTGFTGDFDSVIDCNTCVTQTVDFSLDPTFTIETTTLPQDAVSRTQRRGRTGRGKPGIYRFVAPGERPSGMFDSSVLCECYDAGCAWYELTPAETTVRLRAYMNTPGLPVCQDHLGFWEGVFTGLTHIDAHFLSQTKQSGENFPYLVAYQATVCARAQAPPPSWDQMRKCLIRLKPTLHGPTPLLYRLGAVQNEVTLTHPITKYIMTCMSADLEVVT

For orientation: pIC50 means the negative decadic logarithm of the IC50, by convention in mol/L. As usually defined, the pEC50 is the negative decadic logarithm of the EC50, by convention in mol/L. The low end stands for a high EC50, the high end for a low EC50. With `CCCCS[C@@]1(c2ccc(-c3ccccc3)cc2)C[C@H]2C(=O)N[C@]3(C(=O)NS(=O)(=O)C4CC4)C[C@H]3/C=C\CCCCC[C@H](NC(=O)OC(C)(C)C)C(=O)N2C1` [Compound 1, tert-butyl (2R,6S,13aS,14aR,16aS,Z)-2-(biphenyl-4-yl)-2-(butylthio)-14a-(cyclopropylsulfonylcarbamoyl)-5,16-dioxo-1,2,3,5,6,7,8,9,10,11,13a,14,14a,15,16,16a-hexadecahydrocyclopropa[e]pyrrolo[1,2-a][1,4]diazacyclopentadecin-6-ylcarbamate], the negative-log IC50 (pIC50) in experiment [1] is 8.40. For the same compound, the negative-log EC50 (pEC50) in experiment [2] is 8.30.
